Reference: patent US7524866B2, “Prevention and treatment of androgen—deprivation induced osteoporosis” (GTx, Inc., priority 2001, dated 2009)

Experiments:
[1] = system: orchidectomized rats (ORX); assay: Static and dynamic bone histomorphometry of the proximal tibia (Example 4); format: in vivo, rat; conditions: for loss of trabecular bone volume at the proximal tibia: 10 mg/kg/d Tor; for loss of trabecular bone volume at the proximal tibia / Orx-induced increase in bone turnover parameters at the proximal tibia: E 0.2 mg/kg/d; for Orx-induced increase in bone turnover parameters at the proximal tibia: Tor 5 and 10 mg/kg/d, p<0.05 vs. Orx+vehicle; for Bone Form Rate, Bone Volume Ref / Bone Form. Rate, Bone Surface Ref / Bone Formation Rate, Tissue Volume Ref / Mineral Apposition Rate / Mineralizing Surface / Osteoclast Number/Bone Surface / Osteoclast Surface / Trabecular Bone Volume / Trabecular Number / Trabecular Separation / Trabecular Thickness: proximal tibia, 6 wks, mean
Experimental: (§1) Eight month-old male Sprague Dawley rats were either sham-operated (SHAM) or orchidectomized (ORX). Treatment began immediately following surgery. The treatment groups were as described in Table 5.
Animals were given calcein (intraperitoneally) 12 and 2 days prior to sacrifice. Femurs and lumbar vertebra (L5) were preserved frozen wrapped in saline-soaked gauze. Tibiae and lumbar vertebrae (L4) were preserved in 10% formalin for 48 hours, then transferred to 70% ethanol for long-term storage.
Histology and Static and Dynamic Bone Histomorphometry: Approximately 1.1 cm of the proximal tibia was cut away and the frontal face was trimmed with a low-speed diamond wheel saw to expose the marrow cavity. The L4 lumbar vertebral body was prepared from the lumbar vertebra by trimming off the processes with a slow-speed diamond saw. Each proximal tibia and lumbar vertebral body was dehydrated in a series of ascending ethanol (EtOH) concentrations. Following dehydration, the bone samples were infiltrated and then embedded in a methyl methacrylate-dibutyl phthalate plastic composite. Embedded samples of the proximal tibiae were sectioned using a Leitz motorized rotary microtome equipped with a tungsten-carbide microtome knife. Once the blocks had been trimmed and faced to the sampling site, a 4-micron section was stained with Goldner's trichrome stain for bright field microscopy and an 8-micron section was left unstained for epifluorescent microscopy. Embedded lumbar vertebral body samples were also sectioned using a Leitz motorized rotary microtome equipped with a tungsten-carbide microtome knife. Once the blocks had been trimmed and faced to the sampling site, a 4-micron section was stained with Goldner's trichrome stain for bright field microscopy and an 8-micron section was left unstained for epifluorescent microscopy.
The cancellous bone in the secondary spongiosa of the proximal tibia was evaluated in a region of interest (ROI) that was 1.0 mm distal to the lowest point of the growth plate in a rectilinear region of 3×2 fields. The cancellous bone in the marrow cavity of the lumbar vertebral body was evaluated in a ROI that was approximately 0.5 mm away from the end plates and dorsal and ventral cortices.
The bone histomorphometry was performed using an OsteoMeasure software program (OsteoMetrics, Inc., Atlanta, Ga.) interfaced with a Nikon Eclipse E400 light/epifluorescent microscope and video subsystem. All slides were analyzed in a blinded manner. Total tissue area, trabecular bone area, trabecular bone perimeter and osteoclast perimeter and number were measured on 4 μm Goldner's trichrome-stained sections. Percent trabecular bone area, trabecular number, trabecular thickness, trabecular separation, osteoclast perimeter as a percentage of bone surface and osteoclast number per unit of bone surface were then calculated according to standardized formulae. For deriving the dynamic parameters, single-labeled calcein perimeter, double-labeled calcein perimeter and interlabel width (label thickness) were measured on 8 μm unstained sections. Mineralizing surface, mineral apposition rate and bone formation rate-surface, bone and tissue referents were calculated.

[2] = system: orchidectomized rats (ORX); assay: Ex vivo DXA of the femur (BMC, BA, BMD) (Example 4); format: in vivo, rat; conditions: for Distal femur Bone Area / Distal femur Bone Mineral Content / Distal femur Bone Mineral Density / Midshaft femur Bone Area / Midshaft femur Bone Mineral Content / Midshaft femur Bone Mineral Density / Proximal femur Bone Area / Proximal femur Bone Mineral Content / Proximal femur Bone Mineral Density / Whole femur Bone Area / Whole femur Bone Mineral Content / Whole femur Bone Mineral Density: ORX rats, 6 wks, mean; for bone mass of the whole femur (DXA): 6 weeks of treatment; for loss in bone mineral density at the proximal femur (DXA): 10 mg/kg/d Tor, E 0.2 mg/kg/d; for bone density at the distal femur (DXA): 10 mg/kg/d toremifene, E 0.2 mg/kg/d (p<0.05 vs. Orx+Vehicle for E)
Experimental: as §1
Ex vivo DXA analysis was performed on the vertebra (L5) using a PIXImus instrument and associated animal research software (Lunar Corporation, Madison, Wis.). Bone mineral content (BMC), bone area (BA) and bone mineral density (BMD) are reported. Ex vivo DXA analysis was performed on the femur using a pDXA Sabre and associated animal research software (Norland Medical Systems, Inc., Fort Atkinson, Wis.). BMC, BA and BMD are reported for four regions of interest: whole femur, 25% distal femur, 25% proximal femur and 50% of midshaft femur.

[3] = system: orchidectomized rats (ORX); assay: Cantilever compression test of the femoral neck (Example 4); format: in vivo, rat; conditions: 12 weeks, mean
Experimental: Eight month-old male Sprague Dawley rats were either sham-operated (SHAM) or orchidectomized (ORX). Treatment began immediately following surgery. The treatment groups were as described in Table 5. Bone strength was evaluated using a compression test at the vertebral body, a three point bending test at the femoral shaft, a compression test at the distal femur and a cantilever compression test of the femoral neck. Prior to mechanical testing, all samples were thawed in cold saline and carefully cleaned of any remaining adherent soft tissue.

[4] = system: men with high-grade prostatic intraepithelial neoplasia (HGPIN); assay: Phase IIa clinical trial: bone turnover markers (serum calcium, alkaline phosphatase) in men treated with Toremifene; format: in vivo, human; conditions: 18 men with HGPIN, 60 mg/d Toremifene
Experimental: In a Phase IIa clinical trial to determine whether Toremifene has chemopreventive activity against prostate cancer, 18 men with high-grade prostatic intraepithelial neoplasia (HGPIN) were treated with 60 mg/d of Toremifene for 4 months.

[5] = Toremifene 5 mg/kg/d, Estradiol 0.2 mg/kg/d

C[C@]12CC[C@@H]3c4ccc(O)cc4CC[C@H]3[C@@H]1CC[C@@H]2O [17-β-Estradiol]
loss of trabecular bone volume at the proximal tibia [1]: very effective in preventing loss of trabecular bone volume | Orx-induced increase in bone turnover parameters at the proximal tibia [1]: significantly inhibited | Bone Form Rate, Bone Volume Ref [1, 5]: 42.70 %/yr | Bone Form. Rate, Bone Surface Ref [1, 5]: 10.63 um^3/um^2/yr | Bone Formation Rate, Tissue Volume Ref [1, 5]: 3.13 %/yr | Mineral Apposition Rate [1, 5]: 0.43 um/day | Mineralizing Surface [1, 5]: 5.31% | Osteoclast Number/Bone Surface [1, 5]: 3.77 #/mm | Osteoclast Surface [1, 5]: 6.35% | Trabecular Bone Volume [1, 5]: 8.26% | Trabecular Number [1, 5]: 1.75 #/mm | Trabecular Separation [1, 5]: 572 um | Trabecular Thickness [1, 5]: 47.11 um | Distal femur Bone Area [2, 5]: 0.674 cm^2 | Distal femur Bone Mineral Content [2, 5]: 0.162 gm | Distal femur Bone Mineral Density [2, 5]: 0.240 gm/cm^2 | Midshaft femur Bone Area [2, 5]: 1.128 cm^2 | Midshaft femur Bone Mineral Content [2, 5]: 0.281 gm | Midshaft femur Bone Mineral Density [2, 5]: 0.250 gm/cm^2 | Proximal femur Bone Area [2, 5]: 0.685 cm^2 | Proximal femur Bone Mineral Content [2, 5]: 0.167 gm | Proximal femur Bone Mineral Density [2, 5]: 0.245 gm/cm^2 | Whole femur Bone Area [2, 5]: 2.480 cm^2 | Whole femur Bone Mineral Content [2, 5]: 0.609 gm | Whole femur Bone Mineral Density [2, 5]: 0.246 gm/cm^2 | bone mineral density at the midshaft femur (DXA) ([2]; Orx rats, 6 weeks): did not show any effect | bone mass of the whole femur (DXA) ([2]; Orx rats): did not exhibit any significant effect | loss in bone mineral density at the proximal femur (DXA) ([2]; Orx rats, 6 weeks): somewhat helpful in preventing this loss | bone density at the distal femur (DXA) ([2]; Orx rats, 6 weeks): significantly improved overall density | Energy ([3]; 0.2 mg/kg/d): 40.07 mJ | Maximum Load ([3]; 0.2 mg/kg/d): 114.96 N | Stiffness ([3]; 0.2 mg/kg/d): 209.95 N/mm

CN(C)CCOc1ccc(/C(=C(/CCCl)c2ccccc2)c2ccccc2)cc1 [Toremifene]
alkaline phosphatase, change compared to baseline (mean) ([4]; Day 60, p<0.001): −18.7 | alkaline phosphatase, change compared to baseline (mean) ([4]; Day 120, p<0.001): −21.0 | serum calcium, reduction from baseline (mean) ([4]; Day 120, p=0.005): −0.12 | loss of trabecular bone volume at the proximal tibia [1]: very effective in preventing loss of trabecular bone volume | Orx-induced increase in bone turnover parameters at the proximal tibia [1]: significantly reduced the Orx-induced elevation in bone turnover parameters | Bone Form Rate, Bone Volume Ref [1, 5]: 58.20 %/yr | Bone Form. Rate, Bone Surface Ref [1, 5]: 10.78 um^3/um^2/yr | Bone Formation Rate, Tissue Volume Ref [1, 5]: 2.30 %/yr | Mineral Apposition Rate [1, 5]: 0.32 um/day | Mineralizing Surface [1, 5]: 6.67% | Osteoclast Number/Bone Surface [1, 5]: 3.98 #/mm | Osteoclast Surface [1, 5]: 6.61% | Trabecular Bone Volume [1, 5]: 5.33% | Trabecular Number [1, 5]: 1.30 #/mm | Trabecular Separation [1, 5]: 837.67 um | Trabecular Thickness [1, 5]: 41.39 um | Bone Form Rate, Bone Volume Ref ([1]; Toremifene 10 mg/kg/d): 21.26 %/yr | Bone Form. Rate, Bone Surface Ref ([1]; Toremifene 10 mg/kg/d): 4.78 um^3/um^2/yr | Bone Formation Rate, Tissue Volume Ref ([1]; Toremifene 10 mg/kg/d): 2.07 %/yr | Mineral Apposition Rate ([1]; Toremifene 10 mg/kg/d): 0.34 um/day | Mineralizing Surface ([1]; Toremifene 10 mg/kg/d): 3.02% | Osteoclast Number/Bone Surface ([1]; Toremifene 10 mg/kg/d): 3.33 #/mm | Osteoclast Surface ([1]; Toremifene 10 mg/kg/d): 5.27% | Trabecular Bone Volume ([1]; Toremifene 10 mg/kg/d): 8.81% | Trabecular Number ([1]; Toremifene 10 mg/kg/d): 1.85 #/mm | Trabecular Separation ([1]; Toremifene 10 mg/kg/d): 570.89 um | Trabecular Thickness ([1]; Toremifene 10 mg/kg/d): 45.54 um | Distal femur Bone Area [2, 5]: 0.649 cm^2 | Distal femur Bone Mineral Content [2, 5]: 0.145 gm | Distal femur Bone Mineral Density [2, 5]: 0.224 gm/cm^2 | Midshaft femur Bone Area [2, 5]: 1.086 cm^2 | Midshaft femur Bone Mineral Content [2, 5]: 0.271 gm | Midshaft femur Bone Mineral Density [2, 5]: 0.249 gm/cm^2 | Proximal femur Bone Area [2, 5]: 0.658 cm^2 | Proximal femur Bone Mineral Content [2, 5]: 0.154 gm | Proximal femur Bone Mineral Density [2, 5]: 0.234 gm/cm^2 | Whole femur Bone Area [2, 5]: 2.389 cm^2 | Whole femur Bone Mineral Content [2, 5]: 0.570 gm | Whole femur Bone Mineral Density [2, 5]: 0.238 gm/cm^2 | Distal femur Bone Area ([2]; Toremifene 10 mg/kg/d): 0.659 cm^2 | Distal femur Bone Mineral Content ([2]; Toremifene 10 mg/kg/d): 0.152 gm | Distal femur Bone Mineral Density ([2]; Toremifene 10 mg/kg/d): 0.230 gm/cm^2 | Midshaft femur Bone Area ([2]; Toremifene 10 mg/kg/d): 1.094 cm^2 | Midshaft femur Bone Mineral Content ([2]; Toremifene 10 mg/kg/d): 0.286 gm | Midshaft femur Bone Mineral Density ([2]; Toremifene 10 mg/kg/d): 0.261 gm/cm^2 | Proximal femur Bone Area ([2]; Toremifene 10 mg/kg/d): 0.672 cm^2 | Proximal femur Bone Mineral Content ([2]; Toremifene 10 mg/kg/d): 0.164 gm | Proximal femur Bone Mineral Density ([2]; Toremifene 10 mg/kg/d): 0.244 gm/cm^2 | Whole femur Bone Area ([2]; Toremifene 10 mg/kg/d): 2.420 cm^2 | Whole femur Bone Mineral Content ([2]; Toremifene 10 mg/kg/d): 0.601 gm | Whole femur Bone Mineral Density ([2]; Toremifene 10 mg/kg/d): 0.248 gm/cm^2 | bone mineral density at the midshaft femur (DXA) ([2]; Orx rats, 6 weeks): did not show any effect | bone mass of the whole femur (DXA) ([2]; Orx rats): did not exhibit any significant effect | loss in bone mineral density at the proximal femur, as in distal femur (DXA) ([2]; Orx rats, 6 weeks, 5 mg/kg/d Tor): ineffective | loss in bone mineral density at the proximal femur (DXA) ([2]; Orx rats, 6 weeks): somewhat helpful in preventing this loss | bone density at the distal femur (DXA) ([2]; Orx rats, 6 weeks): prevented Orx-related loss of bone density | Energy ([3]; 5 mg/kg/d): 46.53 mJ | Maximum Load ([3]; 5 mg/kg/d): 116.46 N | Stiffness ([3]; 5 mg/kg/d): 211.77 N/mm | Energy ([3]; 10 mg/kg/d): 44.59 mJ | Maximum Load ([3]; 10 mg/kg/d): 117.50 N | Stiffness ([3]; 10 mg/kg/d): 211.73 N/mm
